pIC50: −log10 of the molar value.
Tests used:
A2780 = A2780 viability assay (CellTiter-Glo, 72 hours); format: cell-based; conditions: Homo sapiens; A2780 cells
How it was run: (§1)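 RPMI-1640/10% FBS; plate cells (MV4-11 1×10^4, OVCAR-3 5×10^3, A2780 1×10^3 per well); 24 h later add compound 0.0015–10 uM; 72 h, 37° C; CellTiter-Glo luminescence, duplicate wells.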

CDK1/Cyclin B = biological target: T1, CDK1/Cyclin B (Homo sapiens, UniProt P06493); assay: Enzymatic assay for CDK1 (LANCE Ultra kinase assay, FRET based); format: biochemical; conditions: ATP at Km; read-out: CDK1 enzymatic activity IC50
T1 construct: purchased Invitrogen PR4768C
How it was run: (§2)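 Purified CDK–cyclin enzyme, ATP at Km; ULight peptide substrate; TR-FRET via Eu anti-phospho-Ab; inhibition scored.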

CDK5/p25 = biological target: T2, CDK5/p25 (Homo sapiens, UniProt Q00535); assay: Enzymatic assay for CDK5 (LANCE Ultra kinase assay, FRET based); format: biochemical; conditions: ATP at Km
T2 construct: purchased Invitrogen PR8543B
How it was run: (§3)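 Compounds tested as 8 doses in 4-fold steps against CDK2/Cyclin A ([…]) or CDK5/p25 ([…]), with ATP at its Km and 68 nM ULight-MBP substrate. After 60 min at 23° C., EDTA plus Eu-labelled anti-phospho-MBP added; TR-FRET (615/665 nm) read after another 60 min.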

OVCAR-3 = OVCAR-3 viability assay (CellTiter-Glo, 72 hours); format: cell-based; conditions: Homo sapiens; OVCAR-3 cells
How it was run: as §1

CDK7/Cyclin H/MNAT1 = biological target: T3, CDK7/Cyclin H/MNAT1 (Homo sapiens, UniProt P50613); assay: Enzymatic assay for CDK7 (LANCE Ultra kinase assay, FRET based); format: biochemical; conditions: for pIC50: ATP at Km
T3 construct: purchased Invitrogen PR6749B
How it was run: as §2

CDK2/Cyclin A = biological target: T4, CDK2/Cyclin A (Homo sapiens, UniProt P24941); assay: Enzymatic assay for CDK2 (LANCE Ultra kinase assay, FRET based); format: biochemical; conditions: ATP at Km
T4 construct: purchased Invitrogen PV6290
How it was run: as §3

T2 sequence (Q00535 whole entry): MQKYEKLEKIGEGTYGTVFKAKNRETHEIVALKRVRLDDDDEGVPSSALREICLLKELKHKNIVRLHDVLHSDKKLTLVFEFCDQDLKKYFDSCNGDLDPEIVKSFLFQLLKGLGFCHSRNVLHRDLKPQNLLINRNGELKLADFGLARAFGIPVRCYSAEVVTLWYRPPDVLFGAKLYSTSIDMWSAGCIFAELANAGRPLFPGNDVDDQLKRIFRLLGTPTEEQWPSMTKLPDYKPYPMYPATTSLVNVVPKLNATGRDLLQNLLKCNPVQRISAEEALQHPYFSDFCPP
T2 sequence (Q15078 99-307 partner limits assumed): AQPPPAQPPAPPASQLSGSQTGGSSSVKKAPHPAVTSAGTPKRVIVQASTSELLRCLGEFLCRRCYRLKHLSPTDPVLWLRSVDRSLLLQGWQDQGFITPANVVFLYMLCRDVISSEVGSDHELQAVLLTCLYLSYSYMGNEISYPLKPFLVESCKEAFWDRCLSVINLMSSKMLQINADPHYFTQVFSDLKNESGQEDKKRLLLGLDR
T1 sequence (P06493 whole entry): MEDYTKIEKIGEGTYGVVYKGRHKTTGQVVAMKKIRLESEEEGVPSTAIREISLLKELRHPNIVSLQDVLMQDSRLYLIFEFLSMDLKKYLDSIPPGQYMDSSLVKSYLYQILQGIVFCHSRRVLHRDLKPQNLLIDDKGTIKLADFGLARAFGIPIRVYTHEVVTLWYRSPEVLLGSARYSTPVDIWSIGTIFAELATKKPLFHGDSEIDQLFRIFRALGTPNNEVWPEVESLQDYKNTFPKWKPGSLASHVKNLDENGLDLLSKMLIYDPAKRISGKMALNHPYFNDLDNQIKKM
T1 sequence (P14635 whole entry partner): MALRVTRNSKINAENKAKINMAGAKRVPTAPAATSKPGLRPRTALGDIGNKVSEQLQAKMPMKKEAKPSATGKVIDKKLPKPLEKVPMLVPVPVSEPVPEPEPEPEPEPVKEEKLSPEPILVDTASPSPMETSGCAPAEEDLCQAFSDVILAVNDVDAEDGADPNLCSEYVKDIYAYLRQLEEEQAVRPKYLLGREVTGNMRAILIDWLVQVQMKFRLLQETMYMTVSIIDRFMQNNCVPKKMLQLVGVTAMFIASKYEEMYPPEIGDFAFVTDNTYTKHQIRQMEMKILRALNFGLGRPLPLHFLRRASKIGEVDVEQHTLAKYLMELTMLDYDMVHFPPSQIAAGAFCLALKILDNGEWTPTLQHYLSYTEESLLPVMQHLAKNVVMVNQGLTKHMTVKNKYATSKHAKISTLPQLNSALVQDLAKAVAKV
T3 sequence (P50613 whole entry): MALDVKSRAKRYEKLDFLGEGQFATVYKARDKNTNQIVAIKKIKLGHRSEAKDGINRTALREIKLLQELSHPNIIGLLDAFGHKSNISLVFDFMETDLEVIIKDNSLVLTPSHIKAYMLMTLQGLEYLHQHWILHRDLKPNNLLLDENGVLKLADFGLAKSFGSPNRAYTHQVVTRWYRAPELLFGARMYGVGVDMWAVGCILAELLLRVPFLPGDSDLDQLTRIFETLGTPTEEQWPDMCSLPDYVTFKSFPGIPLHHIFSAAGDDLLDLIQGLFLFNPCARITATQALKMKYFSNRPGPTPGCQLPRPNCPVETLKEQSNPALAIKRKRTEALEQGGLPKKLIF
T3 sequence (P51946 whole entry partner): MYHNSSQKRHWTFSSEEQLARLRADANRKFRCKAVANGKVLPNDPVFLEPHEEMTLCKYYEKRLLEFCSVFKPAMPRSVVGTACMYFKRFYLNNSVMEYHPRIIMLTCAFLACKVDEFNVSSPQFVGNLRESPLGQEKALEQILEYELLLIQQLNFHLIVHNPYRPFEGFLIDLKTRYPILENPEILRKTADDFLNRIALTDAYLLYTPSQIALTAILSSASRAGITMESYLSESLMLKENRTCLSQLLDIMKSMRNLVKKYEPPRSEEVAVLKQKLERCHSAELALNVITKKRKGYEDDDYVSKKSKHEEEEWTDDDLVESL
T3 sequence (P51948 whole entry partner): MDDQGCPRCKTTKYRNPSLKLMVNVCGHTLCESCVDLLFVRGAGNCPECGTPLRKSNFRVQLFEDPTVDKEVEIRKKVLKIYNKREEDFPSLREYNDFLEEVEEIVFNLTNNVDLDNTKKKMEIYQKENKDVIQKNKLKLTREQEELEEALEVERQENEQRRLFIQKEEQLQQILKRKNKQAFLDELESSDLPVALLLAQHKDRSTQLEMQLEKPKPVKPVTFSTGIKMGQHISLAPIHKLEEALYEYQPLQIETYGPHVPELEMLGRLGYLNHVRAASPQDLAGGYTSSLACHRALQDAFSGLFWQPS

pIC50 (A2780) | pIC50 (CDK1/Cyclin B) | pIC50 (CDK5/p25) | pIC50 (OVCAR-3) | pIC50 (CDK7/Cyclin H/MNAT1) | CDK1/CDK7: Selectivity of CDK7 inhibition over CDK1 inhibition (CDK7/Cyclin H/MNAT1) | CDK2/CDK7: Selectivity of CDK7 inhibition over CDK2 inhibition (CDK7/Cyclin H/MNAT1) | CDK5/CDK7: Selectivity of CDK7 inhibition over CDK5 inhibition (CDK7/Cyclin H/MNAT1) | pIC50 (CDK2/Cyclin A) | SMILES
> 6.00 | < 6.00 | < 6.00 | > 6.00 | 6.00 to 7.00 | B (B indicates 50 < [fold] ≤ 500) | B (B indicates 50 < [fold] ≤ 500) | B (B indicates 50 < [fold] ≤ 500) | < 6.00 | C=CC(=O)Nc1cccc2ccc(-c3cccc(C)c3CNc3nc(N[C@H]4CC[C@H](OC)CC4)nc4c(C(C)C)cnn34)nc12 [Compound 112]
> 6.00 | < 6.00 | < 6.00 | > 6.00 | > 7.00 | B (B indicates 50 < [fold] ≤ 500) | B (B indicates 50 < [fold] ≤ 500) | B (B indicates 50 < [fold] ≤ 500) | < 6.00 | C=CC(=O)Nc1ccc2c(-c3ccccc3CNc3nc(N4CCS(=O)(=O)CC4)nc4c(C(C)C)cnn34)nccc2c1 [Compound 113]
> 6.00 | < 6.00 | < 6.00 | 5.00 to 6.00 | 6.00 to 7.00 | B (B indicates 50 < [fold] ≤ 500) | B (B indicates 50 < [fold] ≤ 500) | B (B indicates 50 < [fold] ≤ 500) | < 6.00 | CC(C)c1cnn2c(NCc3ccccc3-c3nccc4cc(NC(=O)/C=C/CN(C)C)ccc34)nc(N3CCCC4(CC3)OCCO4)nc12 [Compound 115]
> 6.00 | < 6.00 | < 6.00 | > 6.00 | > 7.00 | A (A indicates [fold] > 500) | A (A indicates [fold] > 500) | A (A indicates [fold] > 500) | < 6.00 | C=CC(=O)Nc1ccc2c(-c3ccccc3CNc3cc(N[C@H]4CC[C@H](OC)CC4)nc4c(C(C)C)cnn34)nccc2c1 [Compound 116]
> 6.00 | < 6.00 | < 6.00 | > 6.00 | 6.00 to 7.00 | B (B indicates 50 < [fold] ≤ 500) | B (B indicates 50 < [fold] ≤ 500) | B (B indicates 50 < [fold] ≤ 500) | < 6.00 | CC(C)c1cnn2c(NCc3ccccc3-c3nccc4cc(NC(=O)/C=C/CN(C)C)ccc34)nc(N3CCC4(CCOC4)CC3)nc12 [Compound 117]
> 6.00 | < 6.00 | < 6.00 | > 6.00 | > 7.00 | A (A indicates [fold] > 500) | A (A indicates [fold] > 500) | A (A indicates [fold] > 500) | < 6.00 | C=CC(=O)Nc1ccc2c(-c3ccccc3CNc3cc(N4CCC5(CC4)OCCO5)nc4c(C(C)C)cnn34)nccc2c1 [Compound 118]
> 6.00 | < 6.00 | < 6.00 | > 6.00 | > 7.00 | A (A indicates [fold] > 500) | A (A indicates [fold] > 500) | A (A indicates [fold] > 500) | < 6.00 | CC(C)c1cnn2c(NCc3ccccc3-c3nccc4cc(NC(=O)/C=C/CN(C)C)ccc34)nc(N3CCOC4(CCN(C)CC4)C3)nc12 [Compound 120]
> 6.00 | < 6.00 | < 6.00 | > 6.00 | > 7.00 | B (B indicates 50 < [fold] ≤ 500) | B (B indicates 50 < [fold] ≤ 500) | B (B indicates 50 < [fold] ≤ 500) | < 6.00 | CC(C)c1cnn2c(NCc3ccccc3-c3nccc4cc(NC(=O)/C=C/CN(C)C)ccc34)nc(N3CCC4(CCN(C)C4)CC3)nc12 [Compound 121]
> 6.00 | < 6.00 | < 6.00 | > 6.00 | > 7.00 | B (B indicates 50 < [fold] ≤ 500) | B (B indicates 50 < [fold] ≤ 500) | B (B indicates 50 < [fold] ≤ 500) | < 6.00 | CC(C)c1cnn2c(NCc3ccccc3-c3nccc4cc(NC(=O)/C=C/CN(C)C)ccc34)cc(N3CCC4(CC3)OCCO4)nc12 [Compound 124]
> 6.00 | < 6.00 | < 6.00 | > 6.00 | 6.00 to 7.00 | B (B indicates 50 < [fold] ≤ 500) | B (B indicates 50 < [fold] ≤ 500) | B (B indicates 50 < [fold] ≤ 500) | < 6.00 | CC(C)c1cnn2c(NCc3ccccc3-c3nccc4cc(NC(=O)/C=C/CN(C)C)ccc34)nc(N3CCC(S(=O)(=O)N(C)C)CC3)nc12 [Compound 126]
> 6.00 | < 6.00 | < 6.00 | > 6.00 | 6.00 to 7.00 | B (B indicates 50 < [fold] ≤ 500) | B (B indicates 50 < [fold] ≤ 500) | B (B indicates 50 < [fold] ≤ 500) | < 6.00 | CO[C@H]1CC[C@H](Nc2nc(NCc3c(C)cccc3-c3ccc4cccc(NC(=O)/C=C/CN(C)C)c4n3)n3ncc(C(C)C)c3n2)CC1 [Compound 127]
> 6.00 | < 6.00 | < 6.00 | > 6.00 | > 7.00 | A (A indicates [fold] > 500) | A (A indicates [fold] > 500) | A (A indicates [fold] > 500) | < 6.00 | CC(C)c1cnn2c(NCc3ccccc3-c3nccc4cc(NC(=O)/C=C/CN(C)C)ccc34)nc(N3CCC4(CCN(C)CC4)CC3)nc12 [Compound 128]

SMILES | pIC50 (A2780) | pIC50 (CDK1/Cyclin B) | pIC50 (CDK5/p25) | pIC50 (OVCAR-3) | pIC50 (CDK7/Cyclin H/MNAT1) | CDK1/CDK7: Selectivity of CDK7 inhibition over CDK1 inhibition (CDK7/Cyclin H/MNAT1) | CDK2/CDK7: Selectivity of CDK7 inhibition over CDK2 inhibition (CDK7/Cyclin H/MNAT1) | CDK5/CDK7: Selectivity of CDK7 inhibition over CDK5 inhibition (CDK7/Cyclin H/MNAT1) | pIC50 (CDK2/Cyclin A)
C=CC(=O)Nc1ccc2c(-c3ccccc3CNc3nc(N4C5CCC4CC(O)C5)nc4c(C(C)C)cnn34)nccc2c1 (stereo not drawn) [Compound 114] | 5.00 to 6.00 | < 6.00 | < 6.00 | > 6.00 | > 7.00 | A (A indicates [fold] > 500) | A (A indicates [fold] > 500) | A (A indicates [fold] > 500) | < 6.00
C=CC(=O)Nc1ccc2c(-c3ccccc3CNc3cc(N4C5CCC4CC(OC)C5)nc4c(C(C)C)cnn34)nccc2c1 (stereo not drawn) [Compound 119] | > 6.00 | < 6.00 | < 6.00 | > 6.00 | 6.00 to 7.00 | B (B indicates 50 < [fold] ≤ 500) | B (B indicates 50 < [fold] ≤ 500) | B (B indicates 50 < [fold] ≤ 500) | < 6.00
CC(C)c1cnn2c(NCc3ccccc3-c3nccc4cc(NC(=O)/C=C/CN(C)C)ccc34)nc(OC3CC4CCC(C3)N4C)nc12 (stereo not drawn) [Compound 122] | > 6.00 | < 6.00 | < 6.00 | > 6.00 | > 7.00 | A (A indicates [fold] > 500) | A (A indicates [fold] > 500) | A (A indicates [fold] > 500) | < 6.00
CC(C)c1cnn2c(NCc3ccccc3-c3nccc4cc(NC(=O)/C=C/CN(C)C)ccc34)nc(N3CC4CCC(C3)N4C)nc12 [Compound 123] | > 6.00 | < 6.00 | < 6.00 | > 6.00 | > 7.00 | A (A indicates [fold] > 500) | A (A indicates [fold] > 500) | A (A indicates [fold] > 500) | < 6.00
COC1CC2CCC(C1)N2c1cc(NCc2ccccc2-c2nccc3cc(NC(=O)/C=C/CN(C)C)ccc23)n2ncc(C(C)C)c2n1 (stereo not drawn) [Compound 125] | > 6.00 | < 6.00 | < 6.00 | > 6.00 | 6.00 to 7.00 | B (B indicates 50 < [fold] ≤ 500) | B (B indicates 50 < [fold] ≤ 500) | B (B indicates 50 < [fold] ≤ 500) | < 6.00

Reference: patent publication US12606561B2, “Substituted pyrazolo[1,5-a][1,3,5]triazines as CDK inhibitors” (QURIENT CO., LTD., priority 2018, dated 2026)
